Data set [1] can be described thus: Loading of liposome-encapsulated drug on DC Beads (supernatant HPLC/MS). The data set is classed as physicochemical. The note with it: for loading on DC Beads: cationic liposomes DOTAP/DOPC; for amount loaded: start of elution, liposomal drug on DC Beads. The procedure: (§1) This was accomplished via a two-step process: 1) Sorafenib was made water-soluble by encapsulation into an encapsulating agent that is positively charged on its outer surface (cationic liposomes) and 2) association of a plurality of the loaded encapsulating agents so obtained onto microspheres (DC Beads®). In order to accomplish this, Sorafenib para-toluene sulfonate salt (9.1 mg), DOTAP (1,2-dioleoyl-3-trimethylammonium-propane chloride salt, 100 mg) and DOPC (1,2-dioleoyl-sn-glycero-3-phosphocholine, 101.1 mg) were dissolved in ethanol (0.5 mL) and this solution was added dropwise to a 10% trehalose solution (9 mL) under stirring. The resulting viscous emulsion was stirred at room temperature for 5 minutes and then filtered through a manual liposomal extruder using a 200 nm polycarbonate membrane. The resulting unilamellar liposomal solution was lyophilized overnight to yield a white solid, which was reconstituted in deionized water (1.82 mL) to yield a final Sorafenib concentration of 5 mg/mL. DC Beads® (2 mL, having about 200,000 beads with an average bead diameter of about 100-300 microns as measured by light scattering) were drained of as much liquid as possible and treated with the liposomal solution. The concentration of Sorafenib in the supernatant was measured over time by HPLC/MS. After approximately 46 hours, equilibrium was reached and loading of Sorafenib appeared to be approximately 52%. It is possible that saturation was reached and that more beads are needed to increase loading. For elution experiments, the liposomal solution with the DC Beads® was passed through a cotton filter, leaving the DC Beads® on the filter. PBS (1.0 M, pH 7.4) warmed to 37° C. was passed over the beads at 4 mL/min for 60 minutes. Four 40 mL vials were collected and analyzed by HPLC/MS/MS to determine the concentration of Sorafenib in each sample. Ten 3 mL vials were collected and analyzed by HPLC/MS/MS to establish the drug elution kinetics for Sorafenib.
This was accomplished via a two-step process: 1) Regorafenib (4.7229 mg) was made water-soluble by encapsulation into an encapsulating agent that is positively charged on its outer surface (cationic liposomes) and 2) association of a plurality of the loaded encapsulating agents so obtained onto microspheres. In short, Regorafenib (6.9 mg), DOTAP (1,2-dioleoyl-3-trimethylammonium-propane chloride salt, 100 mg) and DOPC (1,2-dioleoyl-sn-glycero-3-phosphocholine, 101.1 mg) were dissolved in ethanol (0.5 mL) and this solution was added dropwise to a 10% trehalose solution (9 mL) under stirring. […] The concentration of Regorafenib in the supernatant was measured over time by HPLC/MS. […] Four 40 mL vials were collected and analyzed by HPLC/MS/MS to determine the concentration of […] in each sample.

Data set [2] is described as follows: Elution of liposome-encapsulated drug from DC Beads with PBS pH 7.4 at 37° C. The data set is classed as physicochemical. The note with it: for Remaining drug to be eluted: after Fraction I (solvent-final). The procedure:
as §1, with “PBS (1.0 M, pH 7.4) warmed to 37° C. was passed over the beads at 4 mL/min for 60 minutes.” left out
This was accomplished via a two-step process: 1) Regorafenib (4.7229 mg) was made water-soluble by encapsulation into an encapsulating agent that is positively charged on its outer surface (cationic liposomes) and 2) association of a plurality of the loaded encapsulating agents so obtained onto microspheres. In short, Regorafenib (6.9 mg), DOTAP (1,2-dioleoyl-3-trimethylammonium-propane chloride salt, 100 mg) and DOPC (1,2-dioleoyl-sn-glycero-3-phosphocholine, 101.1 mg) were dissolved in ethanol (0.5 mL) and this solution was added dropwise to a 10% trehalose solution (9 mL) under stirring. The resulting viscous emulsion was stirred at room temperature for 5 minutes and then filtered through a manual liposomal extruder using a 200 nm polycarbonate membrane. The resulting unilamellar liposomal solution was lyophilized overnight to yield a white solid, which was reconstituted in deionized water (1.8 mL) to yield a final Regorafenib concentration of 5 mg/mL. DC Beads® (2 mL) were drained of as much liquid as possible and treated with the liposomal solution. The concentration of Regorafenib in the supernatant was measured over time by HPLC/MS. After approximately 92 hours, equilibrium was reached and loading of Regorafenib appeared to be approximately 25%. For elution experiments, the liposomal solution with the DC Beads® was passed through a cotton filter, leaving the DC Beads® on the filter. […] Four 40 mL vials were collected and analyzed by HPLC/MS/MS to determine the concentration of […] in each sample.

For data set [3] the following is noted: cited from earlier work.
For data set [4] the following is noted: human, 400 mg twice daily, cited from earlier work.
Data set [5] in a line: Loading of non-encapsulated drug on DC Beads (residual unloaded drug by HPLC). The data set is classed as physicochemical. The note with it: room temperature. The procedure:
A drug-loading solution was prepared by adding sterile water to a vial of doxorubicin hydrochloride powder (Pharmacia & Upjohn, Kalamazoo, MI) to produce a solution of the desired concentration (for the loading experiment 25 mg Doxorubicin salt was dissolved in 5 mL water. 0.043 mmol/5 mL=8.6 mM solution). 1 mL volume of beads was aspirated via syringe, purged of as much liquid as possible, then an aqueous solution Doxorubicin (5 mL, 5 mg/mL concentration) aspirated and mixed with beads. The mixture was dispensed into a sealed vial and left to load at room temperature without agitation and left for a time until the red coloration in the solution had diminished and the beads had taken on a red color. This time was dependent on drug loading solution concentration and bead size.
The extent of drug loading was calculated from the residual unloaded drug content determined by UV/visible HPLC with DAD detector at 220 and 254 nm (Agilent 1100 Series). Estimated uptake of Doxorubicin was approximately 90% loading after 25 hours, and approximately 99% loading after 91 hours.
Sunitinib was loaded to DC Beads® using a procedure similar to that for Example 6. Estimated uptake of Sunitinib was approximately 99% after 6 hours and >99.8% after 24 hours at room temperature.

For data set [6] the following is noted: after a 24 hour period; previous observations; cited from earlier work.
Setting [7] is: Fraction I (solvent-final), time 320 minutes.

Entries after “also recorded” stand apart in the source; their conditions may differ.

On to `CNC(=O)c1cc(Oc2ccc(NC(=O)Nc3ccc(Cl)c(C(F)(F)F)c3)c(F)c2)ccn1` [Regorafenib], for which the “loading on DC Beads” value in data set [1] (equilibrium after approximately 92 hours) is “approximately 25%”. This molecule also returned an amount loaded in data set [1] of 2.1931 mg. For the same molecule, the “% eluted” value in data set [2] (Fraction B, time 40 minutes) is 68.3963%; in data set [2] (Fraction C, time 80 minutes) it was 2.3255%; in data set [2] (Fraction D, time 120 minutes) it was 0.0109%; in data set [2] (Fraction E, time 160 minutes), 0.00286%; in data set [2] (Fraction F, time 200 minutes) it was 0.0017%; in data set [2] (Fraction G, time 240 minutes), 0.0017%. In addition, the “% eluted” value in data set [2] (Fraction H, time 280 minutes) stood at 0.0049%; in data set [2] (setting [7]), 3.5384%. The Cumulative elution % is on record as 68.3963% in data set [2] (Fraction B, time 40 minutes); 70.7218% in data set [2] (Fraction C, time 80 minutes); 70.7327% in data set [2] (Fraction D, time 120 minutes); 70.7356% in data set [2] (Fraction E, time 160 minutes); 70.7373% in data set [2] (Fraction F, time 200 minutes); 70.739% in data set [2] (Fraction G, time 240 minutes). For the same molecule, the Cumulative elution % in data set [2] (Fraction H, time 280 minutes) came out at 70.7439%; in data set [2] (setting [7]), 74.2823%. Further, the amount eluted in data set [2] (Fraction B, time 40 minutes) came to 1.5 mg; in data set [2] (Fraction C, time 80 minutes), 0.051 mg; in data set [2] (Fraction D, time 120 minutes), 0.00024 mg; in data set [2] (Fraction E, time 160 minutes), 0.0000628 mg; in data set [2] (Fraction F, time 200 minutes), 0.0000372 mg; in data set [2] (Fraction G, time 240 minutes), 0.0000364 mg. For the same molecule, the amount eluted in data set [2] (Fraction H, time 280 minutes) was 0.000108 mg; in data set [2] (setting [7]) it was 0.0776 mg. The “Remaining drug to be eluted” value in data set [2] came to 0.5723 mg. In addition, the water solubility entry in data set [3] is reported as “poor”.
In the case of `CNC(=O)c1cc(Oc2ccc(NC(=O)Nc3ccc(Cl)c(C(F)(F)F)c3)cc2)ccn1` [Sorafenib, 4-{4-[3-(4-chloro-3-trifluoro-phenyl)-ureido]-phenoxyl}-pyridine-2-carboxylic methylamine], in data set [1] (equilibrium after approximately 46 hours), the “loading on DC Beads” value was “approximately 52%”. This molecule had an amount loaded in data set [1] of 4.7229 mg. Further, the “% eluted” value was determined as 65.4259% in data set [2] (Fraction B, time 40 minutes); 10.6714% in data set [2] (Fraction C, time 80 minutes); 0.6479% in data set [2] (Fraction D, time 120 minutes); 0.6924% in data set [2] (Fraction E, time 160 minutes); 0.1912% in data set [2] (Fraction F, time 200 minutes); 0.1188% in data set [2] (Fraction G, time 240 minutes). The “% eluted” value in data set [2] (Fraction H, time 280 minutes) was determined as 0.00648%; in data set [2] (setting [7]), 4.9292%. The Cumulative elution % in data set [2] (Fraction B, time 40 minutes) is 65.4259%; in data set [2] (Fraction C, time 80 minutes), 76.0973%; in data set [2] (Fraction D, time 120 minutes), 76.7452%; in data set [2] (Fraction E, time 160 minutes), 77.4376%; in data set [2] (Fraction F, time 200 minutes), 77.6287%; in data set [2] (Fraction G, time 240 minutes), 77.7475%. For the same molecule, the Cumulative elution % in data set [2] (Fraction H, time 280 minutes) is 77.754%; in data set [2] (setting [7]), 82.68%. Besides, the amount eluted was 3.09 mg in data set [2] (Fraction B, time 40 minutes); 0.504 mg in data set [2] (Fraction C, time 80 minutes); 0.0306 mg in data set [2] (Fraction D, time 120 minutes); 0.0327 mg in data set [2] (Fraction E, time 160 minutes); 0.00903 mg in data set [2] (Fraction F, time 200 minutes); 0.00561 mg in data set [2] (Fraction G, time 240 minutes). For the same molecule, the amount eluted is 0.000306 mg in data set [2] (Fraction H, time 280 minutes) and 0.2328 mg in data set [2] (setting [7]). For the same molecule, in data set [2], the “Remaining drug to be eluted” value came out at 0.8179 mg. Further, the “concentration released in smaller increments thereafter” value in data set [2] (after initial release) amounted to 0.2 µM. For the same molecule, the “drug remained on the beads” value in data set [2] (after the last elution time point) is “Approximately 17%”. Also, in data set [2] (initial release from beads), the concentration released initially was 4 to 20 µM. Besides, the “fraction of loaded drug eluted” value in data set [2] (over 40 minutes) is “approximately 2%”. In addition, the “mean t½” value in data set [4] is 27.4 h. Besides, the Cmax – broadly, the maximum level reached in the sampled fluid or tissue – in data set [4] (read-out: Cmax in plasma) was ~11.6 µM. Moreover, the solubility in alcohol result in data set [3] (alcohol) is on record as “slightly soluble”. The “solubility in polyethylene glycol 400” value in data set [3] (polyethylene glycol 400) is given as “fully soluble”. Moreover, the water solubility entry in data set [3] is “mostly insoluble; also recorded: very poor”.
With `COc1cccc2c1C(=O)c1c(O)c3c(c(O)c1C2=O)C[C@@](O)(C(=O)CO)C[C@@H]3O[C@H]1C[C@H](N)[C@H](O)[C@H](C)O1` [Doxorubicin], the “Estimated uptake (loading) on DC Beads” value in data set [5] (after 25 hours) is given as “approximately 90%”; in data set [5] (after 91 hours), “approximately 99%”. Besides, in data set [6], the “fraction of drug eluted” value is “about 4%”.
